# Measurements taken from patent US20030235872A1, “Assay method” (priority 2002, published 2003).
# Entries after “also recorded” stand apart in the source; their conditions may differ.
# Key:
# [1] = system: vascular SMC membranes (plasma membrane-enriched fraction); assay: Biosensor (surface plasmon resonance, BIAcore L1 chip) binding of Aβ to vascular SMC membranes; design: species or system rat; KA1 (equilibrium association constant for high affinity binding component) / KA2 (equilibrium association constant of low-affinity binding component): unit not given here; conditions: for KA1 (equilibrium association constant for high affinity binding component) / KA2 (equilibrium association constant of low-affinity binding component): competing reaction model; for binding to plasma membrane-enriched fraction from vascular smooth muscle cells: FIG. 6
# Method: (§1) Vascular SMCs were plated at a density of 10^4 cells/well in a 96-well plate, or at a density of 10^6 cells/75 cm^2 cell culture flask (Nunc, Denmark) in 20 ml culture medium, and grown to 80% confluence, after which the medium was removed and replaced with fresh, serum-free medium with or without […] lovastatin.
# (§2) A crude plasma membrane preparation was prepared from vascular SMCs by differential centrifugation (Hubbard et al., 1983). Cells were scraped off 10×75 cm^2 flasks using a cell scraper, and centrifuged in DMEM at 3,000 rpm in a Beckman Coulter Allegra 21R centrifuge at 4° C. for 3 min. The pellet was then washed with phosphate-buffered saline (PBS), added to 10 ml of STM buffer (0.25 M sucrose/5 mM Tris-HCl, pH 7.4/1.0 mM MgCl2), and homogenized on ice using 10 up and down strokes in a 40 ml Dounce-type glass homogenizer with a loose-fitting pestle. The homogenate was centrifuged at 1,100 rpm for 5 min. The supernatant fraction was saved and the pellet rehomogenized in 5 ml of STM buffer. The suspension was again centrifuged, and the first and second supernatant fractions combined, then centrifuged at 40,000 rpm for 2 h (Beckman L8-M Ultracentrifuge, 70 Ti rotor, no brake) and the resulting crude plasma membrane fraction resuspended in 1.0 ml of 0.02 M sodium phosphate buffer, pH 7.4. Total membrane cholesterol was determined using the Amplex Red cholesterol assay kit (Molecular Probes, Eugene, Oreg., USA). The protein content of the membrane preparations was determined using the bicinchoninic acid (BCA) assay using bovine serum albumin as standard.
# (§3) Binding experiments were carried out with a BIAcore X analytical system (Biacore, Uppsala, Sweden) using an L1 sensor chip (Biacore), as supplied by the manufacturer. It will be appreciated that other types of biosensor may also be used, preferably provided that the chip surface is such that the bound lipid material is able to retain a bilayer or monolayer structure. The running buffer used for all experiments was 0.02 M sodium phosphate buffer, pH 6.8 (phosphate buffer). The washing solution was 40 mM N-octyl β-D-glucopyranoside. The regeneration solution was 10 mM sodium hydroxide. All solutions were freshly prepared, degassed and filtered through a […] filter. The operating temperature was 25° C.
# (§4) The alkyl surface of the L1 chip was cleaned by an injection of 25 μl of non-ionic 40 mM octyl glucoside at a flow rate of 5 μl/min. SUV (100 μl) or vascular SMC membranes (100 μl containing 0.33 mg protein) were then immediately applied to the chip surface at a low rate of 5 μl/min. To remove any multilamellar structures from the synthetic lipid surface, 30 μL of 10 mM sodium hydroxide was injected at a flow rate of […], resulting in a stable baseline corresponding to the successful formation of an immobilized layer of SUVs.
# (§5) Peptide solutions were prepared at concentrations ranging from 0.5 to 10 μM. The solutions were injected over the lipid surface at a flow rate of 5 μl/min for 20 min. The peptide solution was then replaced by phosphate buffer and the peptide-membrane complex allowed to dissociate. The removal of the bound peptide and regeneration of the L1 chip surface, without removal of the synthetic lipid or vascular SMC membrane layer, was achieved by an injection of sodium hydroxide (30 μl, 10 mM) at a flow rate of 50 μl/min.
# [2] = system: vascular SMC membrane cholesterol; assay: Cholesterol and protein content of plasma membrane fraction from lovastatin-treated vascular SMCs; type: cell-based, rat; conditions: cells pretreated with lovastatin 72 h; Amplex Red cholesterol assay
# Method: as §1
# as §2, with “The suspension was again centrifuged, and the first and second supernatant fractions combined, then centrifuged at 40,000 rpm for 2 h (Beckman L8-M Ultracentrifuge, 70 Ti rotor, no brake) and the resulting crude plasma membrane fraction resuspended in 1.0 ml of 0.02 M sodium phosphate buffer, pH 7.4.” left out, “standard. […]” for “standard.”
# [3] = system: vascular SMCs; assay: Effect of lovastatin pretreatment on Aβ toxicity in vascular SMCs (MTS assay); conditions: lovastatin pretreatment 72 h
# [4] = system: vascular SMCs; assay: MTS assay of cytotoxicity of Aβ peptides against vascular smooth muscle cells; type: cell-based, rat; conditions: 24 h, FIG. 1; for toxicity against vascular SMCs (MTS assay): peptide 10 μM; for toxicity against vascular SMCs after aging the peptide (MTS assay): peptide aged 5 days, 10 μM
# Method: (§6) Aβ 1-42, Aβ 1-40, Aβ 1-28, Aβ 17-42 and Aβ 29-42 were dissolved in dimethyl sulfoxide (DMSO) at a concentration of 2 mM. The peptide solutions were then sonicated (42 kHz) for 5 minutes, and centrifuged at 5,000 rpm for 1 minute at room temperature using a Hermle Z160M bench microfuge. Solubilised peptides were immediately snap-frozen and mixed on a vortex mixer for 15 seconds. The peptides were then diluted into DMEM for cell culture experiments, or in 0.02 M sodium phosphate buffer, pH 6.8 for biosensor experiments, to give a final concentration of 10 μM.
# as §1
# The F3-(4,5-dimethylthiazol-2-yl)-5-(3-carboxymethoxyphenyl)-2(4-sulfophenyl)-2H-tetrazolium (MTS) reagent solution was added to the culture medium at a concentration of 10% (by volume).
# To measure Aβ toxicity against vascular SMCs, cultures of cells were treated with Aβ peptides and analogues (10 μM) and the amount of toxicity determined using the MTS assay (Cory et al., 1991). […] Aging the peptides by incubation for 5 days caused a significant increase in toxicity. Previous studies (e.g., Pike et al., 1991) have shown that the aggregation of the Aβ into fibrils may be important for the generation of toxic species. The present results support this conclusion. […] In general, the amount of Aβ toxicity approximately correlated with the proportion of fibrillar species.
# [5] = Congo Red assay of amyloid fibrils; type: physicochemical; conditions: peptide aged 5 days, 10 μM; FIG. 2
# Method: as §6
# The concentration of amyloid fibrils was measured using the assay of Klunk et al. (1999). Aβ peptides were mixed with Congo red (CR) in 0.02 M sodium phosphate buffer, pH 6.8. The final concentration of peptide and CR was 10 μM. Solutions of CR alone were also prepared in 0.02 M sodium phosphate buffer, pH 6.8. The mixture was vortexed briefly and then incubated at room temperature for 15 min. The absorbances at 403 and 541 nm were measured using a BioRad SmartSpec 3000 spectrophotometer. Background absorbance values of buffer alone were subtracted from the values obtained from each sample. The concentration of Aβ fibrils in each preparation was then determined using the formula
# All preparations were prepared in triplicate, and the assay was conducted independently three times, with similar results being obtained in each experiment.
# [6] = system: synthetic lipid mixtures (cholesterol: phospholipid SUV); assay: Biosensor (surface plasmon resonance, BIAcore L1 chip) binding of Aβ to synthetic lipid mixtures; design: KA1 (equilibrium association constant for high affinity binding component) / KA2 (equilibrium association constant of low-affinity binding component): unit not given here; conditions: for KA1 (equilibrium association constant for high affinity binding component) / KA2 (equilibrium association constant of low-affinity binding component): competing reaction model; for extent of binding to the synthetic lipid mixture: 10 μM, cholesterol: phospholipid 60:40, compared with Aβ 1-28, FIG. 4
# Method: Small 100 nm unilamellar vesicles (SUV), containing DMPC, DMPG, DMPS and DMPE, and cholesterol, were prepared in 0.02 M phosphate buffer (pH 6.8) by sonication and extraction. Briefly, 1.5 mg of total lipid was dissolved in 1.5 ml of CHCl3: MeOH (3:1, v/v). Aliquots (408 μl) were removed and evaporated under a stream of nitrogen, and the lipids further dried in vacuo overnight. The lipids were then resuspended in 600 μl of 0.02 M sodium phosphate buffer, pH 6.8. The resulting lipid dispersion was sonicated in a bath type sonicator until clear, and then extruded 17 times through 100 nm pore diameter polycarbonate filters using Liposofast apparatus (Avestin, Ottawa, Canada) to obtain 100 nm […]. The mixed lipid vesicles contained 80% (w/w), 60% (w/w), 40% (w/w), 30% (w/w) or 0% (w/w) cholesterol. The remaining lipid comprised a mixture of DMPC: DMPE: DMPS: DMPG in a ratio of 75:20:2.5:2.5 (by weight).
# as §3, §4, §5
# The amount of binding in response units (RU) was fitted by a simple one-to-one Langmuir reaction model (Morton et al., 1995):
# or a competing reaction model (Karlsson and Falt, 1997):
# using BIAevaluation 3.0 software (Biacore). The data obtained from five different binding experiments performed at five different concentrations of peptide were fitted globally to obtain the equilibrium association constant (KA). The accuracy of each fit was assessed by calculating a X^2 value for the data (Karlsson and Failt, 1997). A lower X^2 value was taken as an indication of a better fit of the data. […] Scatchard plots were generated using BIAevaluation 3.0 software (Biacore).
# As previous studies have shown that Aβ can interact directly with lipid membranes, we examined the possibility that the toxic effects of Aβ were due to a direct interaction with the vascular SMC membrane. To study the binding of Aβ to lipids, biosensor technology was employed.
# [7] = membranes from lovastatin-treated vascular SMCs (72 h)
# [8] = membranes from untreated vascular SMCs
KA1 (equilibrium association constant for high affinity binding component) ([6]; Cholesterol: PL ratio 30 : 70),KA2 (equilibrium association constant of low-affinity binding component) ([6]; Cholesterol: PL ratio 30 : 70),KA2 (equilibrium association constant of low-affinity binding component) ([6]; Cholesterol: PL ratio 60 : 40),KA1 (equilibrium association constant for high affinity binding component) ([6]; Cholesterol: PL ratio 80 : 20),KA2 (equilibrium association constant of low-affinity binding component) ([6]; Cholesterol: PL ratio 80 : 20),"KA1 (equilibrium association constant for high affinity binding component) [1, 7]","KA2 (equilibrium association constant of low-affinity binding component) [1, 7]","KA1 (equilibrium association constant for high affinity binding component) [1, 8]","KA2 (equilibrium association constant of low-affinity binding component) [1, 8]",extent of binding to the synthetic lipid mixture [6],Molecule,toxicity against vascular SMCs (MTS assay) [4],toxicity against vascular SMCs after aging the peptide (MTS assay) [4],binding to plasma membrane-enriched fraction from vascular smooth muscle cells ([1]; peptide 10 μM),other results
1.1 × 10^5,5.2 × 10^4,1.3 × 10^6,4.8 × 10^7,1.0 × 10^7,4.1 × 10^4,3.6 × 10^4,8.3 × 10^5,5.9 × 10^5,,"Aβ1-40: β-amyloid protein peptide, residues 1-40, made by manual solid-phase Boc synthesis",significant toxicity,,bound to the membrane fraction,KA1 (equilibrium association constant for high affinity binding component) ([6]; Cholesterol: PL ratio 60 : 40): 4.0 × 10^7; total amount of binding to SMC membrane fraction relative to synthetic lipid mixture containing 60% cholesterol and 40% phospholipid ([1]; peptide 10 μM): approximately 10%
1.8 × 10^5,6.9 × 10^4,4.8 × 10^7,2.7 × 10^8,6.9 × 10^7,9.3 × 10^4,5.3 × 10^4,1.8 × 10^6,9.6 × 10^5,,"Aβ1-42: β-amyloid protein peptide, residues 1-42, made by manual solid-phase Boc synthesis",significant toxicity,significant increase in cytotoxicity,bound to the membrane fraction,
,,,,,,,,,bound more strongly,"Aβ17-42: C-terminal Aβ fragment, residues 17-42 (LVFFAEDVGSNKGAIIGLMVGGVVIA; Amyloid-beta protein 42; UniProt P05067 688-713, looked up, fragment)",significant toxicity,,,
,,,,,,,,,bound more strongly,"Aβ29-42: C-terminal Aβ fragment, residues 29-42 (GAIIGLMVGGVVIA; Amyloid-beta protein 42; UniProt P05067 700-713, looked up, fragment)",significant toxicity,,,

# Continued, molecule first:
Molecule,KA1 (equilibrium association constant for high affinity binding component) ([6]; Cholesterol: PL ratio 30 : 70),KA2 (equilibrium association constant of low-affinity binding component) ([6]; Cholesterol: PL ratio 30 : 70),KA2 (equilibrium association constant of low-affinity binding component) ([6]; Cholesterol: PL ratio 60 : 40),KA1 (equilibrium association constant for high affinity binding component) ([6]; Cholesterol: PL ratio 80 : 20),KA2 (equilibrium association constant of low-affinity binding component) ([6]; Cholesterol: PL ratio 80 : 20),"KA1 (equilibrium association constant for high affinity binding component) [1, 7]","KA2 (equilibrium association constant of low-affinity binding component) [1, 7]","KA1 (equilibrium association constant for high affinity binding component) [1, 8]","KA2 (equilibrium association constant of low-affinity binding component) [1, 8]",extent of binding to the synthetic lipid mixture [6],toxicity against vascular SMCs (MTS assay) [4],toxicity against vascular SMCs after aging the peptide (MTS assay) [4],binding to plasma membrane-enriched fraction from vascular smooth muscle cells ([1]; peptide 10 μM),other results
"CC[C@H](C)C(=O)O[C@H]1C[C@@H](C)C=C2C=C[C@H](C)[C@H](CC[C@@H]3C[C@@H](O)CC(=O)O3)[C@H]21 [lovastatin, Lovastatin]",,,,,,,,,,,,,,"Aβ1-40 and Aβ1-42 binding to plasma membrane fraction of lovastatin-treated cells, relative to that without lovastatin pretreatment ([1]; cells pretreated with lovastatin 72 h, unaged Aβ 10 μM, RU20): approximately 25%; cholesterol content of the membrane fraction relative to untreated cells [2]: approximately 55%; effect of lovastatin alone on the ability of vascular SMCs to reduce MTS ([3]; no Aβ): little effect; reduction of the Aβ1-40 and Aβ1-42-induced decrease in MTS reduction in lovastatin-treated cells versus controls ([3]; then unaged Aβ 10 μM 24 h, FIG. 7): 25-40%"
"Aβ1-28: N-terminal Aβ fragment, residues 1-28",,,,,,,,,,,less toxic,still toxic; also recorded: significantly less toxic,,fibrillar species (Congo red binding assay) [5]: failed to form fibrils; also recorded: formed fewer fibrillar species
